Data published in US10640506B2, “Cyclobutyl substituted pyrrolopyridine and pyrrolopyrimidines derivatives as JAK inhibitors” (Incyte Corporation, priority 2010, dated 2020).
Counter-ions that a name gives are not always drawn. Like-named read-outs stand apart in the source and are kept apart here.

Experiments:
[1] = target: human JAK1 (a.a. 837-1142) (Homo sapiens, UniProt P23458); test: In vitro JAK kinase assay (HTRF, phosphorylation of biotinylated peptide), JAK1; type: biochemical; conditions: 1 mM ATP, read-out: JAK1 IC50
Sequence of human JAK1 (a.a. 837-1142) (P23458 849-1154): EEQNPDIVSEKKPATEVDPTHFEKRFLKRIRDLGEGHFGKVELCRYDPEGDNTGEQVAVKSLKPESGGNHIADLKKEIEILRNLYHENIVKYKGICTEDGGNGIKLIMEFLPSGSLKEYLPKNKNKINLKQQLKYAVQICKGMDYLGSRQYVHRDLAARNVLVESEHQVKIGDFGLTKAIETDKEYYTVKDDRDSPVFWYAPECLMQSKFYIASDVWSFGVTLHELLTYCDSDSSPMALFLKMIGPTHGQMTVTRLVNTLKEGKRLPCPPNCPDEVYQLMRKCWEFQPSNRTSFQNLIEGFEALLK
Experimental: Compounds herein were tested for inhibitory activity of JAK targets according to the following in vitro assay described in Park et al., Analytical Biochemistry 1999, 269, 94-104. The catalytic domains of human JAK1 (a.a. 837-1142) and JAK2 (a.a. 828-1132) with an N-terminal His tag were expressed using baculovirus in insect cells and purified. The catalytic activity of JAK1 and JAK2 was assayed by measuring the phosphorylation of a biotinylated peptide. The phosphorylated peptide was detected by homogenous time resolved fluorescence (HTRF). […] Reactions were carried out at room temperature for 1 hour and then stopped with 20 μL 45 mM EDTA, 300 nM SA-APC, 6 nM Eu-Py20 in assay buffer (Perkin Elmer, Boston, Mass.). Binding to the Europium labeled antibody took place for 40 minutes and HTRF signal was measured on a Fusion plate reader (Perkin Elmer, Boston, Mass.). […] Data is indicated as ranges, wherein “+” is less than 10 nM; “++” is 10 nM to 25 nM; “+++” is greater than 25 nM to 100 nM; and “++++” is greater than 100 nM. Greater than 25 nM to 100 nM specifies a range with a lower endpoint “at greater than 25 nM” and an upper endpoint at 100 nM.

JAK2 (a.a. 828-1132) = target: T1, JAK2 (a.a. 828-1132) (Homo sapiens, UniProt O60674); test: In vitro JAK kinase assay (HTRF, phosphorylation of biotinylated peptide), JAK2; type: biochemical; conditions: 1 mM ATP, read-out: JAK2 IC50
T1 construct: JAK2 (a.a. 828-1132); His tag (N)
T1 sequence (O60674 828-1132): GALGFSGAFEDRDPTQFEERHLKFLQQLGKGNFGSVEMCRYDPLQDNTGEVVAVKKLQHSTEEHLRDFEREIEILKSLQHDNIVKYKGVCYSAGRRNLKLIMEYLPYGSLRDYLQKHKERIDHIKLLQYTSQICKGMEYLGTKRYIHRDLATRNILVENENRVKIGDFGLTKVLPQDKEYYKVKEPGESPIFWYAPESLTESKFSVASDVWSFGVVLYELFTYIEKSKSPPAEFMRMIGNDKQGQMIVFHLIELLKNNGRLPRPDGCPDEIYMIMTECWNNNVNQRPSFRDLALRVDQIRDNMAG
Experimental: Compounds herein were tested for inhibitory activity of JAK targets according to the following in vitro assay described in Park et al., Analytical Biochemistry 1999, 269, 94-104. The catalytic domains of human JAK1 (a.a. 837-1142) and JAK2 (a.a. 828-1132) with an N-terminal His tag were expressed using baculovirus in insect cells and purified. The catalytic activity of JAK1 and JAK2 was assayed by measuring the phosphorylation of a biotinylated peptide. The phosphorylated peptide was detected by homogenous time resolved fluorescence (HTRF). […] Reactions were carried out at room temperature for 1 hour and then stopped with 20 μL 45 mM EDTA, 300 nM SA-APC, 6 nM Eu-Py20 in assay buffer (Perkin Elmer, Boston, Mass.). Binding to the Europium labeled antibody took place for 40 minutes and HTRF signal was measured on a Fusion plate reader (Perkin Elmer, Boston, Mass.). See Tables A-F for data related to compounds of the Examples (at 1 mM). Data is indicated as ranges, wherein “+” is less than 10 nM; “++” is 10 nM to 25 nM; “+++” is greater than 25 nM to 100 nM; and “++++” is greater than 100 nM. Greater than 25 nM to 100 nM specifies a range with a lower endpoint “at greater than 25 nM” and an upper endpoint at 100 nM.

SMILES	IC50 ([1]; Table B) [nM]	IC50 (JAK2 (a.a. 828-1132); Table B) [nM]	IC50 ([1]; Table A) [nM]	IC50 (JAK2 (a.a. 828-1132); Table A) [nM]
N#CC[C@]1(n2cc(-c3ncnc4[nH]ccc34)cn2)C[C@@H](N2CCN(C(=O)c3cc(F)cc(C#N)c3)CC2)C1 [Example 12a, 3-[(4-{cis-3-(cyanomethyl)-3-[4-(7H-pyrrolo[2,3-d]pyrimidin-4-yl)-1H-pyrazol-1-yl]cyclobutyl}piperazin-1-yl)carbonyl]-5-fluorobenzonitrile]	–	–	< 10	25 to 100
N#CC[C@]1(n2cc(-c3ncnc4[nH]ccc34)cn2)C[C@H](N2CCN(C(=O)c3cc(F)cc(C#N)c3)CC2)C1 [Example 12b, 3-[(4-{trans-3-(cyanomethyl)-3-[4-(7H-pyrrolo[2,3-d]pyrimidin-4-yl)-1H-pyrazol-1-yl]cyclobutyl}piperazin-1-yl)carbonyl]-5-fluorobenzonitrile]	< 10	10 to 25	–	–
N#CC[C@]1(n2cc(-c3ncnc4[nH]ccc34)cn2)C[C@@H](N2CCN(C(=O)c3nc(C(F)(F)F)cs3)CC2)C1 [Example 13a, [cis-1-[4-(7H-pyrrolo[2,3-d]pyrimidin-4-yl)-1H-pyrazol-1-yl]-3-(4-{[4-(trifluoromethyl)-1,3-thiazol-2-yl]carbonyl}piperazin-1-yl)cyclobutyl]acetonitrile]	–	–	< 10	25 to 100
N#CC[C@]1(n2cc(-c3ncnc4[nH]ccc34)cn2)C[C@H](N2CCN(C(=O)c3nc(C(F)(F)F)cs3)CC2)C1 [Example 13b, [trans-1-[4-(7H-pyrrolo[2,3-d]pyrimidin-4-yl)-1H-pyrazol-1-yl]-3-(4-{[4-(trifluoromethyl)-1,3-thiazol-2-yl]carbonyl}piperazin-1-yl)cyclobutyl]acetonitrile]	< 10	25 to 100	–	–
N#CC[C@]1(n2cc(-c3ncnc4[nH]ccc34)cn2)C[C@@H](N2CCN(C(=O)c3cncc(C(F)(F)F)n3)CC2)C1 [Example 14a, [cis-1-[4-(7H-pyrrolo[2,3-d]pyrimidin-4-yl)-1H-pyrazol-1-yl]-3-(4-{[6-(trifluoromethyl)pyrazin-2-yl]carbonyl}piperazin-1-yl)cyclobutyl]acetonitrile]	–	–	< 10	25 to 100
N#CC[C@]1(n2cc(-c3ncnc4[nH]ccc34)cn2)C[C@H](N2CCN(C(=O)c3cncc(C(F)(F)F)n3)CC2)C1 [Example 14b, [trans-1-[4-(7H-pyrrolo[2,3-d]pyrimidin-4-yl)-1H-pyrazol-1-yl]-3-(4-{[6-(trifluoromethyl)pyrazin-2-yl]carbonyl}piperazin-1-yl)cyclobutyl]acetonitrile]	< 10	25 to 100	–	–
N#CC[C@]1(n2cc(-c3ncnc4[nH]ccc34)cn2)C[C@@H](N2CCN(Cc3c(F)ccc(F)c3Cl)CC2)C1 [Example 16a, {cis-3-[4-(2-chloro-3,6-difluorobenzyl)piperazin-1-yl]-1-[4-(7H-pyrrolo[2,3-d]pyrimidin-4-yl)-1H-pyrazol-1-yl]cyclobutyl}acetonitrile]	–	–	< 10	10 to 25
N#CC[C@]1(n2cc(-c3ncnc4[nH]ccc34)cn2)C[C@H](N2CCN(Cc3c(F)ccc(F)c3Cl)CC2)C1 [Example 16b, {trans-3-[4-(2-chloro-3,6-difluorobenzyl)piperazin-1-yl]-1-[4-(7H-pyrrolo[2,3-d]pyrimidin-4-yl)-1H-pyrazol-1-yl]cyclobutyl}acetonitrile]	< 10	25 to 100	–	–
N#CC[C@]1(n2cc(-c3ncnc4[nH]ccc34)cn2)C[C@@H](N2CCN(C(=O)c3cc(F)cc(C(F)(F)F)c3)CC2)C1 [Example 17, {cis-3-{4-[3-fluoro-5-(trifluoromethyl)benzoyl]piperazin-1-yl}-1-[4-(7H-pyrrolo[2,3-d]pyrimidin-4-yl)-1H-pyrazol-1-yl]cyclobutyl}acetonitrile]	–	–	< 10	25 to 100
N#CC[C@]1(n2cc(-c3ncnc4[nH]ccc34)cn2)C[C@H](N2CCN(C(=O)N3CCCC3)CC2)C1 [Example 19, {trans-3-[4-(pyrrolidin-1-ylcarbonyl)piperazin-1-yl]-1-[4-(7H-pyrrolo[2,3-d]pyrimidin-4-yl)-1H-pyrazol-1-yl]cyclobutyl}acetonitrile]	10 to 25	> 100	–	–

The remaining lines, values ahead:

IC50 ([1]; Table B) [nM]	IC50 (JAK2 (a.a. 828-1132); Table B) [nM]	IC50 ([1]; Table A) [nM]	IC50 (JAK2 (a.a. 828-1132); Table A) [nM]	SMILES
< 10	10 to 25	–	–	N#CC[C@]1(n2cc(-c3ncnc4[nH]ccc34)cn2)C[C@H](N2CCN(C(=O)c3cc(F)cnc3Cl)CC2)C1 [Example 9b, {trans-3-{4-[(2-chloro-5-fluoropyridin-3-yl)carbonyl]piperazin-1-yl}-1-[4-(7H-pyrrolo[2,3-d]pyrimidin-4-yl)-1H-pyrazol-1-yl]cyclobutyl}acetonitrile]
–	–	< 10	> 100	N#CC[C@]1(n2cc(-c3ncnc4[nH]ccc34)cn2)C[C@@H](N2CCN(C(=O)c3cncc(F)c3)CC2)C1 [Example 10a, {cis-3-{4-[(5-fluoropyridin-3-yl)carbonyl]piperazin-1-yl}-1-[4-(7H-pyrrolo[2,3-d]pyrimidin-4-yl)-1H-pyrazol-1-yl]cyclobutyl}acetonitrile]
< 10	25 to 100	–	–	N#CC[C@]1(n2cc(-c3ncnc4[nH]ccc34)cn2)C[C@H](N2CCN(C(=O)c3cncc(F)c3)CC2)C1 [Example 10b, {trans-3-{4-[(5-fluoropyridin-3-yl)carbonyl]piperazin-1-yl}-1-[4-(7H-pyrrolo[2,3-d]pyrimidin-4-yl)-1H-pyrazol-1-yl]cyclobutyl}acetonitrile tris(trifluoroacetate) Salt]
–	–	10 to 25	> 100	N#CC[C@]1(n2cc(-c3ncnc4[nH]ccc34)cn2)C[C@@H](N2CCN(C(=O)c3ccnc(C(F)F)c3F)CC2)C1 [Example 11a, {cis-3-{4-[2-(difluoromethyl)-3-fluoroisonicotinoyl]piperazin-1-yl}-1-[4-(7H-pyrrolo[2,3-d]pyrimidin-4-yl)-1H-pyrazol-1-yl]cyclobutyl}acetonitrile]
< 10	25 to 100	–	–	N#CC[C@]1(n2cc(-c3ncnc4[nH]ccc34)cn2)C[C@H](N2CCN(C(=O)c3ccnc(C(F)F)c3F)CC2)C1 [Example 11b, {trans-3-{4-[2-(difluoromethyl)-3-fluoroisonicotinoyl]piperazin-1-yl}-1-[4-(7H-pyrrolo[2,3-d]pyrimidin-4-yl)-1H-pyrazol-1-yl]cyclobutyl}acetonitrile]
–	–	< 10	25 to 100	N#CC[C@]1(n2cc(-c3ncnc4[nH]ccc34)cn2)C[C@@H](N2CCN(C(=O)c3ccc(F)c(F)c3)CC2)C1 [Example 15a, {cis-3-[4-(3,4-difluorobenzoyl)piperazin-1-yl]-1-[4-(7H-pyrrolo[2,3-d]pyrimidin-4-yl)-1H-pyrazol-1-yl]cyclobutyl}acetonitrile]
< 10	10 to 25	–	–	N#CC[C@]1(n2cc(-c3ncnc4[nH]ccc34)cn2)C[C@H](N2CCN(C(=O)c3ccc(F)c(F)c3)CC2)C1 [Example 15b, {trans-3-[4-(3,4-difluorobenzoyl)piperazin-1-yl]-1-[4-(7H-pyrrolo[2,3-d]pyrimidin-4-yl)-1H-pyrazol-1-yl]cyclobutyl}acetonitrile]
< 10	10 to 25	–	–	N#CC[C@]1(n2cc(-c3ncnc4[nH]ccc34)cn2)C[C@H](N2CCN(C(=O)c3ccc(C(F)(F)F)cc3F)CC2)C1 [Example 18, {trans-3-{4-[2-fluoro-4-(trifluoromethyl)benzoyl]piperazin-1-yl}-1-[4-(7H-pyrrolo[2,3-d]pyrimidin-4-yl)-1H-pyrazol-1-yl]cyclobutyl}acetonitrile 2.3×(trifluoroacetate) Salt]
